Source: article PMC9506480, “Synthesis and Evaluation of Antiproliferative Activity, Topoisomerase IIα Inhibition, DNA Binding and Non-Clinical Toxicity of New Acridine–Thiosemicarbazone Derivatives” (Pharmaceuticals, 2022)
Entries after “also recorded” stand apart in the source; their conditions may differ.

Molecular target: T1, recombinant human topoisomerase IIα (p170) (Homo sapiens, UniProt P11388)
T1 construct: purchased Sigma-Aldrich
Assay: Human topoisomerase IIα inhibition assay (pUC19 plasmid relaxation)
Type: biochemical
Details: for inhibition of Topo IIα enzymatic activity (in words) / % of enzyme inhibition: 100 µM; for % of enzyme inhibition / inhibition at 100 µM: densitometry, relative to positive control mAMSA, '-' = no inhibition; for inhibition at 100 µM: read-out: % of enzyme inhibition
Description: Several studies have shown the ability of acridines to inhibit topoisomerases, being considered the main mechanism responsible for the antiproliferative activities of this scaffold. The possibility of the new acridine derivatives to inhibit Topo IIα in its biological function of DNA double-strand relaxation was investigated in this work. This enzymatic inhibition can be accompanied by the presence of a supercoiled or relaxed DNA band, performed with the pUC19 plasmid, as shown in Figure 2. In this study, mAMSA was used as a positive inhibition control.
For testing the ability of Topo IIα inhibition, the compounds were evaluated in the DNA plasmid relaxation assay. This test consists of evaluating the Topo IIα enzyme activity in the absence and presence of the compound, followed by electrophoresis analysis, as previously described by Almeida et al. (2016). Briefly, 100 ng pUC19 DNA plasmid (Sigma-Aldrich) and 4.0 units of recombinant human (p170) topoisomerase II (Sigma-Aldrich) in relaxation buffer without or with tested compounds were incubated for 30 min at 37 °C. The tested concentrations were […], and amsacrine (mAMSA) was used as a positive control. Reactions were terminated with 1% SDS and digested with proteinase K. Then, the reaction products were analyzed by electrophoresis gel stained with ethidium bromide and photographed under UV light. Quantitative evaluation (% of enzyme inhibition by compounds about the positive control mAMSA) of the gel bands corresponding to supercoiled DNA was performed by densitometry using image-processing software (Scion Image, version Beta 4.0.2.) according to Gouveia et al. (2018).
Figure 2 Effects of mAMSA and its acridine derivatives on topoisomerase IIα activity. Effects of derivatives and positive control on the inhibition of human topoisomerase IIα. Native supercoiled pUC19 was incubated for 30 min at 37 °C with […] of human Topo IIα in the absence (lane 2) or presence of ligands at a concentration 100 μM. Inhibition of Topo IIα-induced DNA relaxation by mAMSA (lane 3) was used as a positive control. DNA samples were run on an agarose gel followed by ethidium bromide staining.

T1 sequence (P11388 whole entry): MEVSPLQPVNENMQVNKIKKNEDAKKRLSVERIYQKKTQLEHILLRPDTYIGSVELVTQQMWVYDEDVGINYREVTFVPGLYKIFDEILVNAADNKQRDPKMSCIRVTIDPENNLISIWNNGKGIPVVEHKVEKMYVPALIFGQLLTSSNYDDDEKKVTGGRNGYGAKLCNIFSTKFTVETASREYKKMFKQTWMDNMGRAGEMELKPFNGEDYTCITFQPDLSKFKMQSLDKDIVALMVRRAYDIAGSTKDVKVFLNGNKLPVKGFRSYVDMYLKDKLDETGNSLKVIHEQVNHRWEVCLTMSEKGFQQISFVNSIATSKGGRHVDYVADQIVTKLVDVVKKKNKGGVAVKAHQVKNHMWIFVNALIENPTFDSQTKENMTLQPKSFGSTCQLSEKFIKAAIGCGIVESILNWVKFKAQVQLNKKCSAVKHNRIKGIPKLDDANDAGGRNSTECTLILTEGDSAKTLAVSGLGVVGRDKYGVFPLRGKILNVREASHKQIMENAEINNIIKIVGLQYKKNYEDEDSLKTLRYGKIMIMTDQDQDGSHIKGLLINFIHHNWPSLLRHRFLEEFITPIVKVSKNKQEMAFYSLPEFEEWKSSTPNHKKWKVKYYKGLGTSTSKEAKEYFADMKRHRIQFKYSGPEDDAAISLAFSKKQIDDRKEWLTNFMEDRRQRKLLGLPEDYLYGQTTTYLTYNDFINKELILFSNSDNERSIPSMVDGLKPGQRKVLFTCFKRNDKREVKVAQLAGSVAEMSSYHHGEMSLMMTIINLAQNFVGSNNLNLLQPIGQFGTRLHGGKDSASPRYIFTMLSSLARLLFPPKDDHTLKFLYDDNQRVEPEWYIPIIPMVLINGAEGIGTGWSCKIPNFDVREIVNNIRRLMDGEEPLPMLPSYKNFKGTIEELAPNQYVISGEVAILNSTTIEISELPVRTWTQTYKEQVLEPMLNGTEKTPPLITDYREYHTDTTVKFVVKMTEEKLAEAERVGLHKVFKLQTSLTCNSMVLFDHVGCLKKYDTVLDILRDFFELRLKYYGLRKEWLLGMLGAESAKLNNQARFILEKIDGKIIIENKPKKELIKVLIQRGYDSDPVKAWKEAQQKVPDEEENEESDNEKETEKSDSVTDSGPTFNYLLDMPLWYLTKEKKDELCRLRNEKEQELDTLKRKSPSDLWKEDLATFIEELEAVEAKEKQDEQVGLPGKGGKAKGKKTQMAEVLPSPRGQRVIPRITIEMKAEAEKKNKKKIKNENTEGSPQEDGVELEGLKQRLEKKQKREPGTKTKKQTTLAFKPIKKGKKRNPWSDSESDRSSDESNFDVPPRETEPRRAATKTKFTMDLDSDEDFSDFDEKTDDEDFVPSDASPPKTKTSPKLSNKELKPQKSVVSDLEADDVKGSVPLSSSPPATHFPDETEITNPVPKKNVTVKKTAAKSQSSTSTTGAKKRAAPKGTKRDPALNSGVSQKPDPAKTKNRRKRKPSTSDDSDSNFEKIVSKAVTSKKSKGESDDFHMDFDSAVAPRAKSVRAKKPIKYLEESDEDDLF

Oc1ccc(/C=N/NC(=S)Nc2c3ccccc3nc3ccccc23)cc1 [CL-07, (E)-N-(acridin-9-yl)-2-(4-hydroxybenzylidene)hydrazine-1-carbothioamide]
inhibition of Topo IIα enzymatic activity (in words): did not show inhibition capacity; also recorded: could not inhibit Topo IIα

COc1ccc2nc3cc(Cl)ccc3c(NC(=S)N/N=C/c3ccccc3)c2c1 [DL-01, (E)-2-benzylidene-N-(6-chloro-2-methoxyacridin-9-yl)hydrazine-1-carbothioamide]
inhibition of Topo IIα enzymatic activity (in words): able to inhibit the enzymatic activity | % of enzyme inhibition: 77% | inhibition at 100 µM: > 74%

COc1ccc2nc3cc(Cl)ccc3c(NC(=S)N/N=C/c3cccc(O)c3)c2c1 [DL-08, (E)-N-(6-chloro-2-methoxyacridin-9-yl)-2-(3-hydroxybenzylidene)hydrazine-1-carbothioamide]
inhibition of Topo IIα enzymatic activity (in words): able to inhibit the enzymatic activity | % of enzyme inhibition: 79% | inhibition at 100 µM: > 74%
